The numbers were not newly measured in patent US20030166007A1, “Chemical proteomics” (MDS Proteomics Inc., priority 2002, published 2003), which cites them from elsewhere.

Series [1] concerns the target T1, muscle glycogen phosphorylase b (Homo sapiens, UniProt P11217).
T1 sequence (P11217 1-842): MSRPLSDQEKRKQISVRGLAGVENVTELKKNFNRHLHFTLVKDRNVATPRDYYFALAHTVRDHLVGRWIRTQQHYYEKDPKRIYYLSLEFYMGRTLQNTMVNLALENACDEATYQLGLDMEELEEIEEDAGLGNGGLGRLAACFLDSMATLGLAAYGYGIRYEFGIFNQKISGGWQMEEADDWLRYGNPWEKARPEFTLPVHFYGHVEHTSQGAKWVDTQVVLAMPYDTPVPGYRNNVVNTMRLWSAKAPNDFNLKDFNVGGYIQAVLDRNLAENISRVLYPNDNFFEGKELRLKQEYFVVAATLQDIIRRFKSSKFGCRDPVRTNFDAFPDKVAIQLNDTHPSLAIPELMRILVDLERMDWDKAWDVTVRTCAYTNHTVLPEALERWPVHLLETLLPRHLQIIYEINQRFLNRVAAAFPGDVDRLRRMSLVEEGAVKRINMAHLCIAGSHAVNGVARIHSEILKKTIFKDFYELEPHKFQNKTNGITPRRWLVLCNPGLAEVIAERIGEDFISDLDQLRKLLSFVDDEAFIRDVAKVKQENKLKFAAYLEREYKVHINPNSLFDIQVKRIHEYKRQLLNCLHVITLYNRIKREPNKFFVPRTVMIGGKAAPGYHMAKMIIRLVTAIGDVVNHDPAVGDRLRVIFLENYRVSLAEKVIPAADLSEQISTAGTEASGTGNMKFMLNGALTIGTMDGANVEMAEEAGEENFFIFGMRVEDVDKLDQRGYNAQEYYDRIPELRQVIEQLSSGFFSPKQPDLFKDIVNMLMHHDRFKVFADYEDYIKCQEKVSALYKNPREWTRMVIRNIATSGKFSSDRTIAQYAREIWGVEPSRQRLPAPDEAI
To be noted: cited from earlier work.

The target of series [2] is Amido phosphoribosyltransferase (Homo sapiens, UniProt Q06203). To be noted: in vitro assays; cited from earlier work.
Amido phosphoribosyltransferase, sequence (Q06203 12-517, species assumed): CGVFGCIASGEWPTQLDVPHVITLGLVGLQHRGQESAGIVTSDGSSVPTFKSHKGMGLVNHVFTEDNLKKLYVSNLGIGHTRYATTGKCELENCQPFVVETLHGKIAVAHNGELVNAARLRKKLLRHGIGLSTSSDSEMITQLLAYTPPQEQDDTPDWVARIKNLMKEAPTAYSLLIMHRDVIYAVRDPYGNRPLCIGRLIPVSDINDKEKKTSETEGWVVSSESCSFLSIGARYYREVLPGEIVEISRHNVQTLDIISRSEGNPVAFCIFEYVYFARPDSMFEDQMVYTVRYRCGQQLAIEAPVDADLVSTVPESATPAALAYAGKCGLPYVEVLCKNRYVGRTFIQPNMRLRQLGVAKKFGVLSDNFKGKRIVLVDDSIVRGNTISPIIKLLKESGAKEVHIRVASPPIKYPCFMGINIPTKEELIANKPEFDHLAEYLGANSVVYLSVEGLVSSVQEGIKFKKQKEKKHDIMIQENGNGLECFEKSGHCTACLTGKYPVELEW

In the case of `CN(Cc1cnc2nc(N)nc(N)c2n1)c1c(Cl)cc(C(=O)N[C@@H](CCC(=O)O)C(=O)O)cc1Cl` [3′,5′-dichloroMethotrexate], in series [1], the “inhibition of muscle glycogen phosphorylase b” value was “reversible inhibitors”. With `CN(Cc1cnc2nc(N)nc(N)c2n1)c1ccc(C(=O)NC(CCC(=O)O)C(=O)O)cc1Cl` (stereo not drawn) [3′-chloroMethotrexate], the “inhibition of muscle glycogen phosphorylase b” value in series [1] is reported as “reversible inhibitors”.

In the case of `CN(Cc1cnc2nc(N)nc(N)c2n1)c1ccc(C(=O)N[C@@H](CCC(=O)N[C@@H](CCC(=O)N[C@@H](CCC(=O)N[C@@H](CCC(=O)N[C@@H](CCC(=O)O)C(=O)O)C(=O)O)C(=O)O)C(=O)O)C(=O)O)cc1` [MTX-Glu5], the inhibition of amido-phosphoribosyltransferase result in series [2] is “inhibited”.
